Source: patent US20160208246A1, “COMPOSITIONS AND METHODS FOR TREATING A HEMATOLOGICAL MALIGNANCY ASSOCIATED WITH AN ALTERED RUNX1 ACTIVITY OR EXPRESSION” (YEDA RESEARCH AND DEVELOPMENT CO. LTD., priority 2013, published 2016)
Residues, ends and D or L forms follow the SMILES beside them. *: point of attachment. Cbz = O=C(OCc1ccccc1)*; CH2F = FC*

Legend:
[1] = test system: Kasumi-1 cells; assay: Cell cycle analysis (Propidium iodide, FACS); type: cell-based, human; conditions: 50 μM, 24 hrs, three days post siRNA-delivery
Source text: FIGS. 1B and 1C illustrate cell cycle analysis 8 days post transfection with either RUNX1-targeting (SEQ ID NO: 52) or control non-targeting (NT) siRNA. FIG. 1B illustrates cells which were subjected to two successive transfections (at days 0 and 4) with either RUNX1-targeting or NT siRNA. Propidium iodide (PI) was used to assess cellular DNA content by FACS analysis. Bar numbers indicate the relative size (in %) of labeled population out of total cells. Indicated cell cycle phases: subG1; G1; S and G2M; and FIG. 1C are histograms summarizing the distribution of cell population as analyzed in FIG. 1B. Data represents mean±STDV values of five independent experiments.
FIG. 1H illustrates that caspase inhibition rescues Kasumi-1^RX1-KD from apoptosis. […] Histograms show the distribution of cells among cell cycle phases determined as detailed above. […]
FIGS. 2C-2G illustrate that KD of A-E rescues Kasumi-1 cells from RUNX1 KD-induced apoptosis. […] FIGS. 2C-2F, following incubation for 8 days, cells were stained with PI and analyzed by FACS for cell cycle; and FIG. 2G are histograms showing the distribution of cells among cell cycle phases. […]
For cell cycle analysis, cells were stained with Propidium iodide (Sigma-Aldrich) according to standard procedure. […] All data were collected using LSRII flow cytometer (BD Biosciences) and analyzed by FlowJo software.

[2] = test system: RUNX1; assay: siRNA-mediated RUNX1 KD in Kasumi-1 cells (RT-qPCR, Western blotting); type: cell-based, human; conditions: Western blot, 50 μM, 24 hrs after 72 hrs siRNA
Source text: FIG. 1A, upper panel, is a schematic illustration of RUNX1 (blue) and RUNX1-ETO (A-E) (blue-red) transcripts indicating regions targeted by the siRNAs used to knock down (KD) expression of either RUNX1 (bars underneath RUNX1 marked in green and orange) or A-E (black bar underneath A-E fusion region). […] NO: 49) (as marked in green in the upper panel). Total RNA isolated 24 hrs post electroporation of RUNX1-targeting or non-targeting (NT) control siRNA. Data shown represent mean expression±SE. Shown are results from one of three experiments with the same findings. Primers used for RT-qPCR are presented in Table 1 (in the Examples section which follows). […] Blots were reacted with an antibody (Ab) against RUNX1-N-terminus or Lamin. Results from one of two experiments with the same findings are shown. […] KD efficiency was assessed both by RT-qPCR and immunoblotting. […] Cells were collected, washed once in PBS, and nuclear proteins were extracted and analyzed by Western blotting as previously described [Aziz-Aloya, R. et al., Cell Death (1998) 5, 765-773]. […] Quantitation of cDNAs was performed by qPCR using Roche LC480 LightCycler with sequence-specific primers (Table 1, below) and miScript SYBR Green PCR kit (QIAGEN). Target transcript quantification was calculated relative to ACTB mRNA, which served as an internal control. Standard errors were calculated using REST.

With `COC(=O)C[C@H](NC(=O)[C@H](C)NC(=O)[C@@H](NC(=O)OCc1ccccc1)C(C)C)C(=O)CF` [Z-VAD-FMK] (Cbz-Val-Ala-Asp(OMe)-CH2F) the “apoptosis in Kasumi-1^RX1-KD cells” value [1] was “completely blocked apoptosis”, the “subG1 fraction of Kasumi-1^RX1-KD cells” value [1] was “profound decrease” and the “RUNX1 protein levels in Kasumi-1^RX1-KD cells” value [2] was “further reduced”.
